According to US8795630B2, “Butyrylcholinesterase ligands as diagnostic tools and treatment for diseases of the nervous system” (Treventis Corporation, priority 2008, dated 2014):

How the values were obtained:
[1] = target: T1, BuChE (Homo sapiens, UniProt P06276); test: Michaelis-Menten constant and maximum reaction velocity measurement (Lineweaver-Burk plot); format: biochemical; conditions: room temperature, λ=285 nm, average, N=3
Experimental: In Example 55, Km and relative Vmax values were determined for compounds identified to be hydrolyzed by BuChE. The assay was carried out by mixing 1 uL of BuChE stock solution in 1.4 mL of phosphate buffer. Absorbance of this solution was calibrated to zero and the reaction commenced with the addition of 100 μL of a solution of ligand in 100% acetonitrile. The reactions were carried out at room temperature. The rate of change of absorbance (ΔA/min), reflecting the rate of hydrolysis of the ligand by enzyme was recorded every 3 seconds for a total of 36 seconds using a Milton-Roy uv-visible spectrophotometer set at λ=285 nm.
A Lineweaver-Burk plot was used in order to determine the Km (substrate concentration at which the reaction rate reaches half of its maximum value), and relative Vmax (maximum reaction velocity), values. Average Michealis-Menten constant and maximum reaction velocity values for a selection compounds (N=3) were measured, and the results are set forth in Table 1 below.

[2] = target: human recombinant AChE (Homo sapiens, UniProt P22303); test: Acetylcholinesterase in vitro assay (hydrolysis of ligand followed by UV/Vis repetitive scans); format: biochemical; conditions: phosphate buffer pH 8.0; change of absorbance in repeated scans
human recombinant AChE, sequence (P22303 32-614): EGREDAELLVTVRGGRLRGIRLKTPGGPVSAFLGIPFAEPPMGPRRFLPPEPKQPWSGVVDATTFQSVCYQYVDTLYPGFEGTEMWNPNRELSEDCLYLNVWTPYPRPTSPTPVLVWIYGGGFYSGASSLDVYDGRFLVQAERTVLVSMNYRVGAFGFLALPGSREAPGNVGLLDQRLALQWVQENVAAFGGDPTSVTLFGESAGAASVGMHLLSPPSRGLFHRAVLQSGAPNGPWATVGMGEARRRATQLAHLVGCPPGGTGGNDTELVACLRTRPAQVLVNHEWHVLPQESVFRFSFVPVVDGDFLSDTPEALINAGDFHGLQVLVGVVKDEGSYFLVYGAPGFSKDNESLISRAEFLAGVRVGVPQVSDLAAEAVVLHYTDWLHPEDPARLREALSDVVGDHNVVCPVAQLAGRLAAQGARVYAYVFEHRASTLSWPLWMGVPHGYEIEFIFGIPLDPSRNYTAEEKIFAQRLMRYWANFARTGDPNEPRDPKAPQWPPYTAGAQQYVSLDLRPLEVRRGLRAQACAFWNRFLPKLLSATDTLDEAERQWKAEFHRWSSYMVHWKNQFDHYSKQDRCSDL
Experimental: In Examples 23-28, the interaction of the ligands with AChE was determined by measuring the rate of hydrolysis of the ligand in a buffered solution containing the enzyme. AChE stock solution consisted of 240 μg of human recombinant AChE dissolved in 1.5 mL of 0.1% aq. Gelatin. All ligands used in the assay were dissolved in a minimal amount of acetonitrile to form a ligand solution. 0.1 M Phosphate buffer PH 8.0 consisted of 1.2 g of NaH2PO4 dissolved in 100 mL of water and adjusted to the appropriate pH. The Assay was carried out by mixing 0.1 μmole of ligand solution with 5 μL of AChE stock solution and bringing the volume in a quartz cuvette of 1 cm path length to 1.5 mL with phosphate buffer. Scans using an UltraSpec 2100 Pro UV/Visible spectrophotometer over a wavelength of 200-900 nm monitored the rate of hydrolysis of the ligand by the enzyme. Change of absorbance in the spectrum indicated hydrolysis of the ligand by the enzyme.

[3] = target: T1, BuChE; test: Butyrylcholinesterase in vitro assay (hydrolysis of ligand followed by UV/Vis repetitive scans); format: biochemical; conditions: phosphate buffer pH 8.0; change of absorbance in repeated scans
Experimental: In Examples 39-54, interaction of the ligands with BuChE was determined by measuring the rate of the hydrolysis of the ligand in a buffered solution containing the enzyme. All ligands used in the assay were dissolved in a minimal amount of acetonitrile to form a ligand solution. 0.1 M Phosphate buffer PH 8.0 was prepared as to the above specifications. The Assay was carried out by mixing 0.1 μmol of ligand solution with 5 μL of BuChE stock solution and bringing the volume in a quartz cuvette of 1 cm path length to 1.5 mL with phosphate buffer. Scans using an UltraSpec 2100 Pro UV/Visible spectrophotometer over a wavelength of 200-900 nm monitored the rate of hydrolysis of the ligand by the enzyme. Change of absorbance in the spectrum indicated hydrolysis of the ligand by the enzyme. The results of these experiments generally indicate that enzymatic hydrolysis of the compounds does occur in the presence of BuChE.

[4] = SPECT imaging and brain fraction radiation counts after injection of radiolabeled compound; format: in vivo; conditions: rat; after injection and several hours of SPECT imaging; sacrificed and perfused
Experimental: Shortly after the synthesis and purification detailed in Example 21, a rat was injected with the radiolabeled compound (6-oxo-1,6-dihydropyridin-2-yl)methyl-4-^123iodobenzoate and SPECT images were taken at regular time points for several hours.
After imaging, the rat was sacrificed and perfused. Radiation counts from HPLC attributable to (1,6-dihydro-6-oxopyridin-2-yl)methyl 4-^123iodobenzoate remaining in the brain fraction are shown in FIG. 4.

T1 sequence (P06276 29-602): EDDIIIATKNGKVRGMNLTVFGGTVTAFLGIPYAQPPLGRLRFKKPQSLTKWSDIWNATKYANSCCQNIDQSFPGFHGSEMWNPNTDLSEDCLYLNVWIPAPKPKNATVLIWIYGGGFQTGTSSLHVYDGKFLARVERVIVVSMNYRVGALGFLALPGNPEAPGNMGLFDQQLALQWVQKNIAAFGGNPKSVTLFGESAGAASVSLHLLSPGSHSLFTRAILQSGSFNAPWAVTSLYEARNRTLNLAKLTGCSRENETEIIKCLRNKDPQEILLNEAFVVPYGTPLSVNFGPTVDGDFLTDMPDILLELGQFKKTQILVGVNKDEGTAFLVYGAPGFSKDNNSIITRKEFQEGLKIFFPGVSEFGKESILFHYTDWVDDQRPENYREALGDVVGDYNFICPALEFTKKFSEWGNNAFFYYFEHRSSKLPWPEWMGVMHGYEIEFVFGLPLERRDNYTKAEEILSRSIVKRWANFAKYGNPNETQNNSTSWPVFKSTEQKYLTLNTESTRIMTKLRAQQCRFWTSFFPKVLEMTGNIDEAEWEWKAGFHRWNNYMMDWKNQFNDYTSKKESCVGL

CCCC(=O)SCC[N+](C)(C)C [butyrylthiocholine, reference compound]
Km [1]: 30.6 ± 7 µM

CN1CCC(OC(=O)c2ccc(F)cc2)CC1 [Example 8, 1′-methylpiperidin-4′-yl 4-fluorobenzoate]
enzymatic hydrolysis of the compound in the presence of AChE [2]: does not occur
enzymatic hydrolysis of the compound in the presence of BuChE [3]: does occur
Km [1]: 753 ± 115 µM
Vmax (relative maximum reaction velocity) [1]: 36 ± 6 ΔA min^−1

N#Cc1ccc(C(=O)OCc2cccc(=O)[nH]2)cc1 [Example 6, (1,6-dihydro-6-oxopyridin-2-yl)methyl 4-cyanobenzoate]
enzymatic hydrolysis of the compound in the presence of AChE [2]: does not occur
enzymatic hydrolysis of the compound in the presence of BuChE [3]: does occur

CN1CC[C@H](OC(=O)c2ccc(I)cc2)C1 [Example 14, (5)-1′-methylpyrrolidin-3′-yl 4-iodobenzoate]
enzymatic hydrolysis of the compound in the presence of AChE [2]: does not occur
enzymatic hydrolysis of the compound in the presence of BuChE [3]: does occur
Km [1]: 16 ± 4 µM
Vmax (relative maximum reaction velocity) [1]: 6.1 ± 0.5 ΔA min^−1

O=C(OCc1cccc(=O)[nH]1)c1ccc([123I])cc1 [Example 21, (6-oxo-1,6-dihydropyridin-2-yl)methyl 4-^123iodobenzoate]
brain penetration (radiation counts in brain fraction, FIG. 4) [4]: penetrates into the brain

O=C(OCc1cccc(=O)[nH]1)c1ccc(I)cc1 [Example 4, (1,6-dihydro-6-oxopyridin-2-yl)methyl 4-iodobenzoate]
enzymatic hydrolysis of the compound in the presence of AChE [2]: does not occur
enzymatic hydrolysis of the compound in the presence of BuChE [3]: does occur
Vmax (relative maximum reaction velocity) [1]: 9.7 ± 1.7 ΔA min^−1

CN1CCC(OC(=O)c2ccccc2)CC1 [Example 10, 1′-methylpiperidin-4′-yl benzoate]
Km [1]: 68 ± 9 µM
Vmax (relative maximum reaction velocity) [1]: 6.8 ± 0.5 ΔA min^−1

CN1CCC(OC(=O)c2ccc(C#N)cc2)CC1 [1′-methylpiperidin-4′-yl 4-cyanobenzoate]
enzymatic hydrolysis of the compound in the presence of AChE [2]: does not occur

CN1CCC(OC(=O)c2ccc(I)cc2)CC1 [Example 7, 1′-methylpiperidin-4′-yl 4-iodobenzoate]
enzymatic hydrolysis of the compound in the presence of AChE [2]: does not occur
enzymatic hydrolysis of the compound in the presence of BuChE [3]: does occur
Km [1]: 26 ± 2 µM
Vmax (relative maximum reaction velocity) [1]: 8.4 ± 0.4 ΔA min^−1

O=C(OCc1ccc[nH]c1=O)c1ccc(I)cc1 [Example 1, (1,2-dihydro-2-oxopyridin-3-yl)methyl 4-iodobenzoate]
enzymatic hydrolysis of the compound in the presence of AChE [2]: does not occur
enzymatic hydrolysis of the compound in the presence of BuChE [3]: does occur

CN1CC[C@H](OC(=O)c2ccc(C#N)cc2)C1 [Example 15, (S)-1′-methylpyrrolidin-3′-yl-4-cyanobenzoate]
enzymatic hydrolysis of the compound in the presence of AChE [2]: does not occur
enzymatic hydrolysis of the compound in the presence of BuChE [3]: does occur
Km [1]: 200 ± 52 µM
Vmax (relative maximum reaction velocity) [1]: 16 ± 4 ΔA min^−1

O=C(OCc1cccc(=O)[nH]1)c1ccc(F)cc1 [Example 5, (1,6-dihydro-6-oxopyridin-2-yl)methyl 4-fluorobenzoate]
enzymatic hydrolysis of the compound in the presence of AChE [2]: does not occur
enzymatic hydrolysis of the compound in the presence of BuChE [3]: does occur

CN1CC[C@@H](OC(=O)c2ccc(C#N)cc2)C1 [Example 17, R-1′-methylpyrrolidin-3′-yl-4-cyanobenzoate]
enzymatic hydrolysis of the compound in the presence of AChE [2]: does not occur
enzymatic hydrolysis of the compound in the presence of BuChE [3]: does occur
Km [1]: 198 ± 18 µM
Vmax (relative maximum reaction velocity) [1]: 30 ± 3 ΔA min^−1

O=C(OCc1ccc[nH]c1=O)c1ccc(F)cc1 [Example 2, (1,2-dihydro-2-oxopyridin-3-yl)methyl 4-fluorobenzoate]
enzymatic hydrolysis of the compound in the presence of AChE [2]: does not occur
enzymatic hydrolysis of the compound in the presence of BuChE [3]: does occur

CN1CCC(OC(=O)c2ccccc2)CC1 [1′-methylpiperidin-4′-yl benzoate]
enzymatic hydrolysis of the compound in the presence of AChE [2]: does not occur
enzymatic hydrolysis of the compound in the presence of BuChE [3]: does occur

CN1CCC(OC(=O)c2ccc(C#N)cc2)CC1 [Example 9, 1′-methylpiperidin-4′-yl 4-cyanobenzoate]
enzymatic hydrolysis of the compound in the presence of BuChE [3]: does occur
Km [1]: 48 ± 18 µM
Vmax (relative maximum reaction velocity) [1]: 12 ± 3 ΔA min^−1

CN1CCC(OC(=O)c2cccc(I)c2)CC1 [1′-methylpiperidin-4′-yl 3-iodobenzoate]
enzymatic hydrolysis of the compound in the presence of AChE [2]: does not occur
enzymatic hydrolysis of the compound in the presence of BuChE [3]: does occur

N#Cc1ccc(C(=O)OCc2ccc[nH]c2=O)cc1 [Example 3, (1,2-dihydro-2-oxopyridin-3-yl)methyl 4-cyanobenzoate]
enzymatic hydrolysis of the compound in the presence of AChE [2]: does not occur
enzymatic hydrolysis of the compound in the presence of BuChE [3]: does occur

CN1CCC(OC(=O)c2cccc(C#N)c2)CC1 [1′-methylpiperidin-4′-yl 3-cyanobenzoate]
enzymatic hydrolysis of the compound in the presence of AChE [2]: does not occur
enzymatic hydrolysis of the compound in the presence of BuChE [3]: does occur

CN1CC[C@@H](OC(=O)c2ccc(I)cc2)C1 [Example 16, R-1′-methylpyrrolidin-3′-yl 4-iodobenzoate]
enzymatic hydrolysis of the compound in the presence of AChE [2]: does not occur
enzymatic hydrolysis of the compound in the presence of BuChE [3]: does occur
Km [1]: 144 ± 121 µM
Vmax (relative maximum reaction velocity) [1]: 10 ± 9 ΔA min^−1
